Assay results reported in publication PMC10388696 (Clinical cancer research : an official journal of the …, 2023).

What was measured:
advanced solid tumors = experiment: Tumor response by RECIST 1.1; format: in vivo, human; settings: monotherapy Part A, 20 mg, one patient with peritoneal mesothelioma
[1] = tested on: multiple syngeneic models; settings: in vivo; cited from earlier work
[2] = Safety: treatment-related AEs and DLTs; format: in vivo
[3] = Clinical plasma pharmacokinetics; settings: human, in vivo
PI3K-γ = settings: cited from earlier work
[4] = QT interval corrected with Fridericia's method; format: in vivo, human; settings: any dose level (data not shown)
[5] = across preclinical species; cited from earlier work
T-cell activation = settings: in vitro; cited from earlier work
[6] = tested on: cancer cell proliferation; settings: in vitro; cited from earlier work

C[C@H](NC(=O)c1c(N)nn2cccnc12)c1cc2cccc(C#Cc3cnn(C)c3)c2c(=O)n1-c1ccccc1 [Eganelisib]
duration of response (PR) (advanced solid tumors): […] | tumor growth in syngeneic models [1]: tumor growth delay | ALT increased, treatment-related, any grade ([2]; human, in vivo): 3 (16%) n (%) | AST increased, treatment-related, any grade ([2]; human, in vivo): 4 (21%) n (%) | Fatigue, treatment-related, any grade ([2]; human, in vivo): 2 (11%) n (%) | Grade ≥3 treatment-related AEs ([2]; human, in vivo): 2 (11%) n (%) | Headache, treatment-related, any grade ([2]; human, in vivo): 2 (11%) n (%) | Rash, treatment-related, any grade ([2]; human, in vivo): 3 (16%) n (%) | hepatic AEs ([2]; human, in vivo): 33% | increased ALT, treatment-related grade ≥3 ([2]; human, in vivo): 18% | increased AST, treatment-related grade ≥3 ([2]; human, in vivo): 18% | increased alkaline phosphatase, treatment-related grade ≥3 ([2]; human, in vivo): 5% | patients who discontinued for a treatment-related AE ([2]; human, in vivo): 8% | patients with dose reduction for a treatment-related AE ([2]; human, in vivo): 3% | treatment-related SAEs ([2]; human, in vivo): 2 (5%) n (%) | treatment-related serious adverse events ([2]; human, in vivo): 5% | grade 5 treatment-related AEs ([2]; monotherapy): no grade 5 treatment-related AEs | MTD ([2]; monotherapy, 10–60 mg QD): no dose of eganelisib monotherapy met MTD criteria | half-life ([3]; 10 mg, terminal t1/2): 10.6 to 23.6 h | half-life ([3]; 10 mg, terminal t1/2, geometric mean): 39.8 h | dose proportionality of exposure (Cmax and AUC) ([3]; 60 mg): approximately dose proportional | half-life ([3]; effective t1/2 calculated from the AR estimate): 9.3 to 25.7 h | Tmax ([3]; po): 1 to 6 h | half-life ([3]; t1/2): 10.6 to 39.8 h | IC50 (PI3K-γ): […] | effects on QTcF [4]: No clinically relevant effects | oral bioavailability [5]: ≥ 31% | direct effect on T-cell activation (T-cell activation): no direct effect | direct effect on cancer cell proliferation [6]: […]
